Tests used:
CsiD = target: T1, CsiD (Escherichia coli, UniProt P76621); assay: CsiD activity assay, product inhibition; format: biochemical; settings: reaction product
T1 construct: gene glaH; full ORF, N-terminal 6xHis tag (pET28a), expressed in E. coli BL21(DE3); Fe(II); homotetramer
T1 sequence (P76621 1-325): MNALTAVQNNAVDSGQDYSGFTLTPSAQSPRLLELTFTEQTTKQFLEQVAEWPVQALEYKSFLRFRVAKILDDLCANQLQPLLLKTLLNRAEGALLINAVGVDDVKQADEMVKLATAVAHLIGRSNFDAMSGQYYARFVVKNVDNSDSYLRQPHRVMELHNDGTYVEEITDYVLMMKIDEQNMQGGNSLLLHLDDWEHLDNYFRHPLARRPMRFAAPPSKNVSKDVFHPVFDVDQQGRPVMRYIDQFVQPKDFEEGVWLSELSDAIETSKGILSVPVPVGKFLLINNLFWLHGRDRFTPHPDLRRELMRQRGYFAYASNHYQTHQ

CsiR = target: T2, CsiR (Escherichia coli, UniProt P37338); assay: filter binding assay with […]-labelled csiD promoter DNA; settings: 1 mM ligand, Tris-HCl pH 7.6, 5 mM MgCl2; allosteric relief of DNA binding
T2 construct: gene glaR; full ORF, N-terminal 6xHis tag (pET28a), expressed in E. coli BL21(DE3)
T2 sequence (P37338 1-220): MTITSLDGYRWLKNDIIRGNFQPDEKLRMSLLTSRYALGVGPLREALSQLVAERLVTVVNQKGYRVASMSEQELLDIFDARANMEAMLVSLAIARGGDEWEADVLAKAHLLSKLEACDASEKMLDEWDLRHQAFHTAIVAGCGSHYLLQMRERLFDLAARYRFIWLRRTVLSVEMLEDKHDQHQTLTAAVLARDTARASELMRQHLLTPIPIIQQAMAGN

| SMILES | weak inhibition (CsiD) | reduced DNA binding at 1 mM (CsiR) |
| --- | --- | --- |
| O=C(O)CC[C@H](O)C(=O)O [L-2-hydroxyglutarate] | We did observe weak inhibition of CsiD by its product L2HG | – |
| O=C(O)CCCC(=O)O [glutarate] | – | repressive effect at the csiD promoter site is specifically relieved upon GA binding |

From article PMC6265302, “Widespread bacterial lysine degradation proceeding via glutarate and L-2-hydroxyglutarate” (Nature Communications, 2018)
